Key:
potassium arsenate = compound: O=[As]([O-])(O)O.[K+] [potassium arsenate]; assay: thermal stability z-score vs DMSO; higher = more thermally stabilized by treatment; conditions: HeLa; arsenate concentration 1 mM
Experimental: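 Cellular thermal proteome profiling in HeLa cells treated with 1 mM arsenate for 1 h (DMSO pretreatment), heated to ten temperatures (37-66.3 °C). Soluble protein was quantified by TMT mass spectrometry relative to DMSO controls; the thermal stability score was transformed to a z-score; mean of n = 3 experiments.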

lipoamide = compound: NC(=O)CCCCC1CCSS1 [lipoamide]; assay: as above; conditions: HeLa, lipoamide concentration 100 µM
Experimental: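 Cellular thermal proteome profiling in HeLa cells. Cells were treated with 100 µM lipoamide for 1 h, with or without 1 mM arsenate for a further 1 h, then heated to ten temperatures (37-66.3 °C), and soluble protein was quantified by TMT mass spectrometry relative to 0.1% DMSO controls. The thermal stability score (sum of log2 fold changes minus the abundance score) was transformed to a z-score; mean of n = 3 experiments.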

[1] = arsenate co-treatment: 1 mM arsenate 1 h
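Also: each temperature applied for 3 min, abundance score taken as mean log2 fold change at the two lowest temperatures, z-score obtained by mean subtraction and division by SD.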

UniProt P47974, sequence (P47974 whole entry): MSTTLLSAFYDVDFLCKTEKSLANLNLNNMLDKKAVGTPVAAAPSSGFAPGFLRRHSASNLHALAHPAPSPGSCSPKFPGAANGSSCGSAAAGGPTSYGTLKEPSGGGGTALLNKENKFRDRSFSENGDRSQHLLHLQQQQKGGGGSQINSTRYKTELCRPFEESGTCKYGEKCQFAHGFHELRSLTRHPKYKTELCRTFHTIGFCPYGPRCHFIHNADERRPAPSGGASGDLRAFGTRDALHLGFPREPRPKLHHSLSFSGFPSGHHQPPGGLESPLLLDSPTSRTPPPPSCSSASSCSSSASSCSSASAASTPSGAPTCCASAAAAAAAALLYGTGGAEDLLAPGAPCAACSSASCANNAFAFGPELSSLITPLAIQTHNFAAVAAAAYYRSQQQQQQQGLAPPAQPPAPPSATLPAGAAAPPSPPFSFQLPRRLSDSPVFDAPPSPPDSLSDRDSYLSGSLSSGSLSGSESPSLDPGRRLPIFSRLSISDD
UniProt Q96SB4, sequence (Q96SB4 whole entry): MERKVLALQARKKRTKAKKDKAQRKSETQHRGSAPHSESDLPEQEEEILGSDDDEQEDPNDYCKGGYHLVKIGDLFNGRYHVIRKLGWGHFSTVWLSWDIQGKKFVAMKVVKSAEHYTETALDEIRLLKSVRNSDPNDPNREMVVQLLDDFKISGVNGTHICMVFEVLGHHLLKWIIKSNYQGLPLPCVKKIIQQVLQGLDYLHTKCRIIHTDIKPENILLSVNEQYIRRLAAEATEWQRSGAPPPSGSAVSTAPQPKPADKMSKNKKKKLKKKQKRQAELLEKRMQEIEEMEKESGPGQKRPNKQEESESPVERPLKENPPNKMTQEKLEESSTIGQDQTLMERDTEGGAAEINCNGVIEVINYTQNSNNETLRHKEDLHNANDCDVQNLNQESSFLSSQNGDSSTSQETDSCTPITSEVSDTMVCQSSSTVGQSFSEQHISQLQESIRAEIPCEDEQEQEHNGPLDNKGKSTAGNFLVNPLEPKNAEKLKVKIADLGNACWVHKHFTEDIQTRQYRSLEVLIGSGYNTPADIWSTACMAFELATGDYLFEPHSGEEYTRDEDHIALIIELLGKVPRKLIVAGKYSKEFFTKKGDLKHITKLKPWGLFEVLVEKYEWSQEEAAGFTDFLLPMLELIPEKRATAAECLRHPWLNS
UniProt P14324, sequence (P14324 whole entry): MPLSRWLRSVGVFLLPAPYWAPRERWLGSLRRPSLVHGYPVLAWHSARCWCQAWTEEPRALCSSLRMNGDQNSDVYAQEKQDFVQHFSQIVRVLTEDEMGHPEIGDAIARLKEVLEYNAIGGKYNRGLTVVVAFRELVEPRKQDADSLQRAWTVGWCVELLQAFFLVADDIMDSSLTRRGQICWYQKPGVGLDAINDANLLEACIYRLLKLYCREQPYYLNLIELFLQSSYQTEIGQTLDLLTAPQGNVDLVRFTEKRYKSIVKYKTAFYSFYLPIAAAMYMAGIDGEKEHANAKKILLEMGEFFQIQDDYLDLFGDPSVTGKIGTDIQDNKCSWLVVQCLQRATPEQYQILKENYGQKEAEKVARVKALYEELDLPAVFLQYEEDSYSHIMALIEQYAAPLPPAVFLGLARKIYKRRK
UniProt Q01167, sequence (Q01167 whole entry): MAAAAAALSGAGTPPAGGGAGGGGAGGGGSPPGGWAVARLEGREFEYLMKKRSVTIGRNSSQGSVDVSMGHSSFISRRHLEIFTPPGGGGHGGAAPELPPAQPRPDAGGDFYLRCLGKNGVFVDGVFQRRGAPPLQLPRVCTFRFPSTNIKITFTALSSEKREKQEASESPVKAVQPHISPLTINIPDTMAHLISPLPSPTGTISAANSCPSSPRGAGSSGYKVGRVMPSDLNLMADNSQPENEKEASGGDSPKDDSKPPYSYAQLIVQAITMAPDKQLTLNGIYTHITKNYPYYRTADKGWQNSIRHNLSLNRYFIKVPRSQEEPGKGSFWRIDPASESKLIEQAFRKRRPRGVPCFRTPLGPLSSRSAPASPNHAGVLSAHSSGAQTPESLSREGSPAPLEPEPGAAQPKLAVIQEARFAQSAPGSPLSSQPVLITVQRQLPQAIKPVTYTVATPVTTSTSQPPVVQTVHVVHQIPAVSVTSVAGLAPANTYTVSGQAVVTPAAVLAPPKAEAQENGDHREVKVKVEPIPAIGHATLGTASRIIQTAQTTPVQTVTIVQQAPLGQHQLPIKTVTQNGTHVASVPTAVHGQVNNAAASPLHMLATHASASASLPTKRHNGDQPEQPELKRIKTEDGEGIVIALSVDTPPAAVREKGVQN
UniProt Q86TG7, sequence (Q86TG7 whole entry): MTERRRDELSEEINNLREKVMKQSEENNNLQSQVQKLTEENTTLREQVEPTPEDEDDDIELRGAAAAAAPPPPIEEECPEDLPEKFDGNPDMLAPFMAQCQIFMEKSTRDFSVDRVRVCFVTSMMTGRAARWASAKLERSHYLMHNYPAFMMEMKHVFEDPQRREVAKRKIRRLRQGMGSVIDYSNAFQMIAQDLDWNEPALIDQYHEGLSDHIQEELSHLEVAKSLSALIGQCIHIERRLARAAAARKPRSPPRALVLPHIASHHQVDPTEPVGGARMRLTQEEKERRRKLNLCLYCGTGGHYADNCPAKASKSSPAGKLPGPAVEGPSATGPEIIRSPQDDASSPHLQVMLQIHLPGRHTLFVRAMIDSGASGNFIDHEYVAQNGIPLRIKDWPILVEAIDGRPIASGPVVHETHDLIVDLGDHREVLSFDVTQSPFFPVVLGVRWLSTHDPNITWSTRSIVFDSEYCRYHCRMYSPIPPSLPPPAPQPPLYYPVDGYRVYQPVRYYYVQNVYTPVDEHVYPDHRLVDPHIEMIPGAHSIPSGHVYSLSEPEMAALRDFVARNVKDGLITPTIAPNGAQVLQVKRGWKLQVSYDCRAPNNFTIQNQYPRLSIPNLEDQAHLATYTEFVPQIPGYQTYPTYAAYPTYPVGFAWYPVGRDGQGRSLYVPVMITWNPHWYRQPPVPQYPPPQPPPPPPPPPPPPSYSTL
UniProt Q9NWS8, sequence (Q9NWS8 whole entry): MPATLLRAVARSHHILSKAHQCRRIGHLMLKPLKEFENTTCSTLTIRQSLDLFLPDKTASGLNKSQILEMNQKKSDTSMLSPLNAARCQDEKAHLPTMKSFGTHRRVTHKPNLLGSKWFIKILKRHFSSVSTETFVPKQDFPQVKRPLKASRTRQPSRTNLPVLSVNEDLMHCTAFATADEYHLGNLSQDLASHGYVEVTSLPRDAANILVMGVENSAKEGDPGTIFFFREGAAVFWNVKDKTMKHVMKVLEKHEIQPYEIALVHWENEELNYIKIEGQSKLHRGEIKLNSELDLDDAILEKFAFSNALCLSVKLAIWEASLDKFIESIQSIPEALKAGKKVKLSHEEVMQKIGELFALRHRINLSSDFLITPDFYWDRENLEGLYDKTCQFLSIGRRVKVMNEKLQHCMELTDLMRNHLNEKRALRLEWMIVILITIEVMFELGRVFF
UniProt A1X283, sequence (A1X283 whole entry): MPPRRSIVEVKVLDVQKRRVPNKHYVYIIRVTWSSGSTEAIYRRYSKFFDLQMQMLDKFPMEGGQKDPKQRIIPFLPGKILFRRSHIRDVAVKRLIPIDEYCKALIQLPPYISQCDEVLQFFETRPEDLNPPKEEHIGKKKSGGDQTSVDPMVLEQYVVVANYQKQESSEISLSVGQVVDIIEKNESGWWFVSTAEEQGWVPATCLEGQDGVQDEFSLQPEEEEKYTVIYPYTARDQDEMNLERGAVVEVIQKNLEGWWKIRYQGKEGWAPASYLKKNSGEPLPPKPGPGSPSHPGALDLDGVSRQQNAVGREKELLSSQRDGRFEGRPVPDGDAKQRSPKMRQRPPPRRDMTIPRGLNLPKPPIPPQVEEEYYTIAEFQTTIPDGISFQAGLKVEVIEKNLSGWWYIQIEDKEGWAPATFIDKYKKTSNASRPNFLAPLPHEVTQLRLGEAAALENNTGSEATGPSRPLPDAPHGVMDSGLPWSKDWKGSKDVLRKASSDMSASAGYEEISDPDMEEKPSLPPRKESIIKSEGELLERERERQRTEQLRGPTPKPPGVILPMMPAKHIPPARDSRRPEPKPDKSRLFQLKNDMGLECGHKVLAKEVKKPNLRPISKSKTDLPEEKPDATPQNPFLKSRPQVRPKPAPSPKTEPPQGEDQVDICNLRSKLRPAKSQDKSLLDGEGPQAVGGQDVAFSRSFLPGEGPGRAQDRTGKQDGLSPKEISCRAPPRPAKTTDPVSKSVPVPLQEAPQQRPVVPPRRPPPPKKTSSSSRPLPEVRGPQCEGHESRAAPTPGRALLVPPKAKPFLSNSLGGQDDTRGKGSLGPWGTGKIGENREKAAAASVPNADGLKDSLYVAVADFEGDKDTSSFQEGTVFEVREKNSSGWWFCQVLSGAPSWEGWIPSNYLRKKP
UniProt P35790, sequence (P35790 whole entry, looked up): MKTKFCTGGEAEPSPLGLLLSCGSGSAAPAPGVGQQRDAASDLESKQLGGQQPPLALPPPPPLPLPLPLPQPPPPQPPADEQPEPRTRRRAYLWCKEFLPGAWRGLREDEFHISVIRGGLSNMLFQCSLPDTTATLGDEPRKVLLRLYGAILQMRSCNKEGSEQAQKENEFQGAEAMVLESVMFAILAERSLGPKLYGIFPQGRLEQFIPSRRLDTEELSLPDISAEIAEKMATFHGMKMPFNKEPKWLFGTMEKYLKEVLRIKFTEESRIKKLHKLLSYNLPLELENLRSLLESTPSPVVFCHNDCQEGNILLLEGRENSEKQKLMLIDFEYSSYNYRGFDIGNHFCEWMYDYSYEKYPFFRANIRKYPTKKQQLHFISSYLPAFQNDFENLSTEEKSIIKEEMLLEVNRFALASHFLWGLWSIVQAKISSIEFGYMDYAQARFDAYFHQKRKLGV
UniProt P15374, sequence (P15374 whole entry): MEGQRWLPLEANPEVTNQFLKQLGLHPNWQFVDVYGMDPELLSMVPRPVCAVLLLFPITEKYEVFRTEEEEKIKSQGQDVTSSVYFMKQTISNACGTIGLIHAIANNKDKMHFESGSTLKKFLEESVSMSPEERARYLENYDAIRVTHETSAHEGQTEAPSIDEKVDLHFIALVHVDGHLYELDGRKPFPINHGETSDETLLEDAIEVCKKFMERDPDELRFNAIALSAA

Target	thermal stability z-score (potassium arsenate)	thermal stability z-score (lipoamide; [1])	thermal stability z-score (lipoamide; arsenate co-treatment: none)
REPIN1 (UniProt Q9BWE0)	0.53	-0.686	-0.309
SH3PXD2B (UniProt A1X283)	-0.433	-0.428	-0.272
DHODH (UniProt Q02127)	-0.752	0.213	0.162
PALLD (UniProt Q8WX93)	-0.249	-0.57	0.141
NOCT (UniProt Q9UK39)	0.112	-0.088	-0.117
RNF214 (UniProt Q8ND24)	-0.33	-0.0786	-0.0159
CCDC43 (UniProt Q96MW1)	0.864	0.776	0.412
FLJ13984|METTL8	0.187	-0.0305	-0.13
FDPS (UniProt P14324)	-0.437	-0.000727	-0.16
PHLDB1 (UniProt Q86UU1)	0.2	-0.559	0.362
QTRT1 (UniProt Q9BXR0)	-0.729	0.739	-1.03
AKAP10 (UniProt O43572)	-0.229	-0.128	-0.105
SARS (UniProt P49591)	2.1	1.63	1.23
FOXK2 (UniProt Q01167)	0.133	0.0506	-0.306
IFRD1 (UniProt O00458)	1.9	-0.177	-0.444
ATRAID (UniProt Q6UW56)	0.451	-2.95	-2.55
MTR (UniProt Q99707)	0.289	-0.354	-0.00141
RPS12 (UniProt P25398)	-0.949	0.613	0.884

Target	thermal stability z-score (potassium arsenate)	thermal stability z-score (lipoamide; [1])	thermal stability z-score (lipoamide; arsenate co-treatment: none)
BRD8 (UniProt Q9H0E9)	-1.06	0.111	-0.0134
PEG10 (UniProt Q86TG7)	-0.109	-0.289	-0.464
PARVA (UniProt Q9NVD7)	1.14	0.468	0.672
SRPK1 (UniProt Q96SB4)	0.291	0.669	-0.433
CHKA (UniProt P35790)	-1.4	0.498	0.357
MYH10 (UniProt P35580)	0.375	0.273	0.19
ZFP36L2 (UniProt P47974)	-0.0646	-0.198	0.12
MRPS28 (UniProt Q9Y2Q9)	-0.842	0.366	0.352
RBM22 (UniProt Q9NW64)	-1.96	-0.0944	0.0307
HAT1 (UniProt O14929)	0.265	0.352	0.375
PRDX6 (UniProt P30041)	0.144	0.00439	0.281
SGMS2 (UniProt Q8NHU3)	-1.22	-1.39	-0.337
RMND1 (UniProt Q9NWS8)	0.244	0.392	0.519
UCHL3 (UniProt P15374)	-0.0572	0.844	0.126
ABCB10 (UniProt Q9NRK6)	-0.034	0.329	0.173
TMEM209 (UniProt Q96SK2)	1.25	-0.644	0.109
LACE1 (UniProt Q8WV93)	-0.0299	0.0464	0.0601
TTC27 (UniProt Q6P3X3)	0.24	-0.686	-0.257

— the supplement of paper PMC12463676, “Small-molecule dissolution of stress granules by redox modulation benefits ALS models” (Nature Chemical Biology, 2025)
